What was measured:
[1] = target: mMC5R (Mus musculus, UniProt P41149); assay: AlphaScreen cAMP agonist assay, HEK293 cells stably expressing mMC5R; conditions: for mMC5R partial agonist efficacy bin: sigmoidal curve, efficacy <90% of NDP-MSH
[2] = target: mMC1R (Mus musculus, UniProt Q01727); assay: AlphaScreen cAMP agonist assay, HEK293 cells stably expressing mMC1R; conditions: for mMC1R percent maximal stimulatory response (compared to NDP-MSH): at 1 mM, not enough stimulation to determine EC50; for mMC1R partial agonist efficacy bin: sigmoidal curve, efficacy <90% of NDP-MSH
[3] = target: mMC4R (Mus musculus, UniProt P56450); assay: AlphaScreen cAMP agonist assay, HEK293 cells stably expressing mMC4R; conditions: for mMC4R percent maximal stimulatory response (compared to NDP-MSH): at 1 mM, not enough stimulation to determine EC50; for mMC4R partial agonist efficacy bin: sigmoidal curve, efficacy <90% of NDP-MSH
[4] = target: mMC3R (Mus musculus, UniProt P33033); assay: AlphaScreen cAMP agonist assay, HEK293 cells stably expressing mMC3R; conditions: for mMC3R percent maximal stimulatory response (compared to NDP-MSH): at 1 mM, not enough stimulation to determine EC50; for mMC3R partial agonist efficacy bin: sigmoidal curve, efficacy <90% of NDP-MSH
mMC3R, sequence (P33033 whole entry): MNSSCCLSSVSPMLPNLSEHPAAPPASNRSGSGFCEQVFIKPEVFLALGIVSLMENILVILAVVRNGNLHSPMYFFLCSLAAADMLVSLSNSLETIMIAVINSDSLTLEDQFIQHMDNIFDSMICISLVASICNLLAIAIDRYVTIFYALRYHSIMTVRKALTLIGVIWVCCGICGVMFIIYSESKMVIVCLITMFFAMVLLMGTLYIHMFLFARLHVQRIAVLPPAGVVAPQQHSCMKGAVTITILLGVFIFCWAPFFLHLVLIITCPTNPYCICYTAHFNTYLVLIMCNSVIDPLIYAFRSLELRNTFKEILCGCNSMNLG

mMC1R, sequence (Q01727 whole entry): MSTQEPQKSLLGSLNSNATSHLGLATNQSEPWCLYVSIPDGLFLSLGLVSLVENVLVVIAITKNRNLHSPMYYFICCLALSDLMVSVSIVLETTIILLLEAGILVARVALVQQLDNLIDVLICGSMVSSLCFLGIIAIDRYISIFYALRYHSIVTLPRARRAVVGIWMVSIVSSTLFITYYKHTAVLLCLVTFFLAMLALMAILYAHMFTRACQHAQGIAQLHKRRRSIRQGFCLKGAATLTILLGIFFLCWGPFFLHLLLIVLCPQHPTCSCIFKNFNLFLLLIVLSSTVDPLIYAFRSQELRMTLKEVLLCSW
mMC4R, sequence (P56450 whole entry): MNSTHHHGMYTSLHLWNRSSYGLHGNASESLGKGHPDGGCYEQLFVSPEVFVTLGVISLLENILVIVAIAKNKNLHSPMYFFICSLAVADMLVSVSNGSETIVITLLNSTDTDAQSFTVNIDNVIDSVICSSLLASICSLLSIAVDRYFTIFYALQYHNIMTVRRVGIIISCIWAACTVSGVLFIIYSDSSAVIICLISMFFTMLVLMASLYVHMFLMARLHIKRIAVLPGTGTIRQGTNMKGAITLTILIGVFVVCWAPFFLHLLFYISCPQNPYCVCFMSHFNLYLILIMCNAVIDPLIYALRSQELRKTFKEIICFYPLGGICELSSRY
mMC5R, sequence (P41149 whole entry): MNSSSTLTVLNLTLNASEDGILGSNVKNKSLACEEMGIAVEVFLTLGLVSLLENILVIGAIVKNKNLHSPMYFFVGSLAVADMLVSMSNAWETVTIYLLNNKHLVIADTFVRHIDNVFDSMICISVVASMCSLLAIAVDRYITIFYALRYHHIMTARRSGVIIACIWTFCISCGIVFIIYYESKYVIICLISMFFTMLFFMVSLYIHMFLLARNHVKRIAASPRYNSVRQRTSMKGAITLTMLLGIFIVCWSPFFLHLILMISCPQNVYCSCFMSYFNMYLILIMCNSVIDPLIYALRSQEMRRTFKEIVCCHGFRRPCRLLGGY

Compound	EC50 [1] [µM]	fold decreased mMC5R agonist potency ([1]; relative to 2718.001) [fold]	mMC1R percent maximal stimulatory response (compared to NDP-MSH) [2] [% @ 1 mM]	mMC4R percent maximal stimulatory response (compared to NDP-MSH) [3] [% @ 1 mM]	mMC3R percent maximal stimulatory response (compared to NDP-MSH) [4] [% @ 1 mM]	mMC5R partial agonist efficacy bin [1]	EC50 [2] [µM]	fold decreased mMC1R agonist potency ([2]; relative to 2718.001) [fold]	mMC1R partial agonist efficacy bin [2]	EC50 [3] [µM]	mMC4R partial agonist efficacy bin [3]	EC50 [4] [µM]	mMC3R partial agonist efficacy bin [4]	fold decreased mMC5R agonist potency ([1]; relative to 2718.002) [fold]	fold decreased mMC1R agonist potency ([2]; relative to 2718.002) [fold]	fold decreased mMC1R agonist potency ([2]; relative to 2718.003) [fold]	fold decreased mMC5R agonist potency ([1]; relative to 2718.003) [fold]
CC(C)C[C@@H]1CNC(=N)N1C[C@@H]1CCCN1C[C@H](Cc1ccccc1)N1C[C@H]([C@@H](C)O)N(CC2CCC(C(C)(C)C)CC2)C1=N (stereo partly drawn) [Compound 2718.035]	23	–	–	55	55	B (B (51–90% receptor activation))	3.7 ± 0.7	12	–	–	–	–	–	–	–	–	–
CC(C)C[C@@H]1CNC(=N)N1C[C@H]1CCCN1C[C@@H](Cc1ccccc1)N1C[C@H]([C@@H](C)O)N(CC2CCC(C(C)(C)C)CC2)C1=N (stereo partly drawn) [Compound 2718.036]	5.8 ± 0.9	–	–	55	50	B (B (51–90% receptor activation))	0.9 ± 0.3	–	–	–	–	–	–	–	–	–	–
CC(C)C[C@H]1CNC(=N)N1C[C@@H]1CCCN1C[C@@H](Cc1ccccc1)N1C[C@H]([C@@H](C)O)N(CC2CCC(C(C)(C)C)CC2)C1=N (stereo partly drawn) [Compound 2718.037]	7 ± 1	–	–	55	50	B (B (51–90% receptor activation))	0.9 ± 0.2	–	B (B (51–90% receptor activation))	–	–	–	–	–	–	–	–
CC(C)C[C@H]1CNC(=N)N1C[C@@H]1CCCN1C[C@H](Cc1ccccc1)N1C[C@@H]([C@H](C)O)N(CC2CCC(C(C)(C)C)CC2)C1=N (stereo partly drawn) [Compound 2718.039]	45	–	–	55	50	B (B (51–90% receptor activation))	4 ± 2	–	B (B (51–90% receptor activation))	–	–	–	–	–	–	–	–
CC(C)C[C@H]1CNC(=N)N1C[C@H]1CCCN1C[C@@H](Cc1ccccc1)N1C[C@@H]([C@H](C)O)N(CC2CCC(C(C)(C)C)CC2)C1=N (stereo partly drawn) [Compound 2718.040]	0.5 ± 0.03	–	–	60	–	–	0.9 ± 0.3	–	–	–	–	3.7 ± 0.4	B (B (51–90% receptor activation))	–	–	–	–
CC(C)C[C@H]1CNC(=N)N1C[C@@H]1CCCN1C[C@H](Cc1ccccc1)N1C[C@H]([C@@H](C)O)N(CC2CCC(C(C)(C)C)CC2)C1=N (stereo partly drawn) [Compound 2718.042]	21.3	–	–	65	65	B (B (51–90% receptor activation))	2.9 ± 0.2	9	–	–	–	–	–	–	–	–	–
CC(C)C[C@H]1CNC(=N)N1C[C@H]1CCCN1C[C@@H](Cc1ccccc1)N1C[C@H]([C@@H](C)O)N(CC2CCC(C(C)(C)C)CC2)C1=N (stereo partly drawn) [Compound 2718.043]	8 ± 2	–	–	55	55	B (B (51–90% receptor activation))	3.5 ± 0.2	–	B (B (51–90% receptor activation))	–	–	–	–	–	–	–	–
CC(C)C[C@H]1CNC(=N)N1C[C@H]1CCCN1C[C@H](Cc1ccccc1)N1C[C@@H]([C@H](C)O)N(CC2CCC(C(C)(C)C)CC2)C1=N (stereo partly drawn) [Compound 2718.044]	2.9 ± 0.9	–	–	50	–	B (B (51–90% receptor activation))	7 ± 2	–	B (B (51–90% receptor activation))	–	–	5.6 ± 0.8	A (A (20–50% receptor activation))	–	–	–	–
CCC[C@@H]1CN([C@@H](CC2CCCCC2)CN2CCC[C@H]2CN2C(=N)NC[C@H]2C(C)C)C(=N)N1CC1CCC(C(C)(C)C)CC1 (stereo partly drawn) [Compound 2718.051]	11	–	–	–	65	–	6 ± 2	–	–	50	B (B (51–90% receptor activation))	–	–	–	–	9	9
CCC[C@@H]1CN([C@H](CC2CCCCC2)CN2CCC[C@@H]2CN2C(=N)NC[C@H]2C(C)C)C(=N)N1CC1CCC(C(C)(C)C)CC1 (stereo partly drawn) [Compound 2718.052]	2.92 ± 0.07	–	–	–	–	–	2.5 ± 0.3	–	–	12	B (B (51–90% receptor activation))	2.6 ± 0.1	B (B (51–90% receptor activation))	–	–	4	–
CCCCC(CN1CCCC1CN1C(=N)NCC1CC(C)C)N1CC(C(C)O)N(CC2CCC(C(C)(C)C)CC2)C1=N (stereo not drawn) [Compound 2718.060]	1.1 ± 0.3	–	–	45	–	–	2.2 ± 0.7	–	B (B (51–90% receptor activation))	–	–	2.2 ± 0.2	B (B (51–90% receptor activation))	4	–	–	–

The next lines start with the values.

EC50 [1] [µM]	fold decreased mMC5R agonist potency ([1]; relative to 2718.001) [fold]	mMC1R percent maximal stimulatory response (compared to NDP-MSH) [2] [% @ 1 mM]	mMC4R percent maximal stimulatory response (compared to NDP-MSH) [3] [% @ 1 mM]	mMC3R percent maximal stimulatory response (compared to NDP-MSH) [4] [% @ 1 mM]	mMC5R partial agonist efficacy bin [1]	EC50 [2] [µM]	fold decreased mMC1R agonist potency ([2]; relative to 2718.001) [fold]	mMC1R partial agonist efficacy bin [2]	EC50 [3] [µM]	mMC4R partial agonist efficacy bin [3]	EC50 [4] [µM]	mMC3R partial agonist efficacy bin [4]	fold decreased mMC5R agonist potency ([1]; relative to 2718.002) [fold]	fold decreased mMC1R agonist potency ([2]; relative to 2718.002) [fold]	fold decreased mMC1R agonist potency ([2]; relative to 2718.003) [fold]	fold decreased mMC5R agonist potency ([1]; relative to 2718.003) [fold]	Compound
3 ± 1	12	75	55	50	–	–	–	–	–	–	–	–	–	–	–	–	CC(C)C[C@H]1CNC(=N)N1C[C@H]1CCCN1C[C@H](Cc1ccccc1)N1C[C@H]([C@@H](C)O)N(CC2CCC(C(C)(C)C)CC2)C1=N (stereo partly drawn) [Compound 2718.034]
1.4 ± 0.3	5	–	–	–	–	0.6 ± 0.1	–	–	1.6 ± 0.3	B (B (51–90% receptor activation))	5.9 ± 0.9	B (B (51–90% receptor activation))	–	–	–	–	CC(C)C[C@@H]1CNC(=N)N1C[C@H]1CCCN1C[C@H](Cc1ccccc1)N1C[C@@H]([C@H](C)O)N(CC2CCC(C(C)(C)C)CC2)C1=N (stereo partly drawn) [Compound 2718.038]
8 ± 1	–	–	60	60	B (B (51–90% receptor activation))	40	125	–	–	–	–	–	–	–	–	–	CC(C)C[C@@H]1CNC(=N)N1C[C@H]1CCCN1C[C@H](Cc1ccccc1)N1C[C@H]([C@@H](C)O)N(CC2CCC(C(C)(C)C)CC2)C1=N (stereo partly drawn) [Compound 2718.041]
2.2 ± 0.7	–	–	50	–	–	1 ± 0.1	–	–	–	–	3.5 ± 0.2	B (B (51–90% receptor activation))	8	4	–	–	CC(C)C[C@@H]1CNC(=N)N1C[C@@H]1CCCN1C[C@@H](CC1CCCCC1)N1C[C@H]([C@@H](C)O)N(CC2CCC(C(C)(C)C)CC2)C1=N (stereo partly drawn) [Compound 2718.045]
5 ± 1	–	–	55	–	–	1.8 ± 0.2	–	–	–	–	9 ± 1	B (B (51–90% receptor activation))	17	7	–	–	CC(C)C[C@@H]1CNC(=N)N1C[C@@H]1CCCN1C[C@H](CC1CCCCC1)N1C[C@@H]([C@H](C)O)N(CC2CCC(C(C)(C)C)CC2)C1=N (stereo partly drawn) [Compound 2718.046]
4.2 ± 0.5	–	–	–	–	–	3.2 ± 0.5	–	–	39	B (B (51–90% receptor activation))	27	B (B (51–90% receptor activation))	–	–	5	–	CCC[C@H]1CN([C@H](CC2CCCCC2)CN2CCC[C@H]2CN2C(=N)NC[C@H]2C(C)C)C(=N)N1CC1CCC(C(C)(C)C)CC1 (stereo partly drawn) [Compound 2718.050]
3.5 ± 0.3	–	65	60	55	–	–	–	–	–	–	–	–	–	–	–	–	CCC[C@H]1CN([C@@H](CC2CCCCC2)CN2CCC[C@@H]2CN2C(=N)NC[C@@H]2C(C)C)C(=N)N1CC1CCC(C(C)(C)C)CC1 (stereo partly drawn) [Compound 2718.054]

Source: paper PMC10299128, “The Parallel Structure–Activity Relationship Screening of Three Compounds Identifies the Common Agonist Pharmacophore of Pyrrolidine Bis-Cyclic Guanidine Melanocortin-3 Receptor (MC3R) Small-Molecule Ligands” (International Journal of Molecular Sciences, 2023)
